Data on 3 compounds can be found in patent publication US12565505B2, “mTORC modulators and uses thereof” (Aeovian Pharmaceuticals, Inc., priority 2019, dated 2026).

The target in one experiment is T1, mTORC1 (Homo sapiens, UniProt P42345+P62942).
T1 construct: endogenous in cells; host or cells: PC3 cells (human prostate adenocarcinoma)
Description: Inhibition assay for mTORC1: phosphorylation of pS6K at Thr389, AlphaLISA SureFire in PC3 cells. The class given is cell-based. As to conditions: PC3 cells, 24 hours treatment, pS6K Thr389, analogs substituted at C40 and C16 (C16 diastereomer mixtures not isolated); for IC50: read-out: pIC50 mTORC1 (converted). The method, boiled down: (§1)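 Human prostate adenocarcinoma PC3 cells treated with compounds for 24 h. AlphaLISA SureFire read-out of pS6K Thr389 for mTORC1 and pAkt Ser473 for mTORC2, from which IC50s were derived.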
(In Alpha technology, singlet oxygen from a donor bead excites a nearby acceptor bead.)

The next experiment concerns the target T2, mTORC2 (Homo sapiens, UniProt P42345+P62942).
T2 construct: endogenous in cells; host or cells: PC3 cells (human prostate adenocarcinoma)
Kind of experiment: Inhibition assay for mTORC2: phosphorylation of pAkt at Ser473, AlphaLISA SureFire in PC3 cells. As to conditions: PC3 cells, 24 hours treatment, analogs substituted at C40 and C16 (C16 diastereomer mixtures not isolated); for IC50: read-out: pIC50 mTORC2 (converted). It is filed as cell-based. The method, boiled down: as §1

Some results are limits rather than exact numbers.

For `CO[C@@H]1C[C@H](C[C@@H](C)[C@@H]2CC(=O)[C@H](C)/C=C(\C)[C@@H](O)[C@@H](OC)C(=O)[C@H](C)C[C@H](C)/C=C/C=C/C=C(\C)C(OCc3ccccc3)C[C@@H]3CC[C@@H](C)[C@@](O)(O3)C(=O)C(=O)N3CCCCC3C(=O)O2)CC[C@H]1OCCCc1ccccc1` (stereo partly drawn) [Compound 116], the IC50 at mTORC1 was 0.316 to 3.16 nM; on mTORC2 it was less than 1000 nM.
As to `CO[C@@H]1C[C@H](C[C@@H](C)[C@@H]2CC(=O)[C@H](C)/C=C(\C)[C@@H](O)[C@@H](OC)C(=O)[C@H](C)C[C@H](C)/C=C/C=C/C=C(\C)C(OCc3ccccc3)C[C@@H]3CC[C@@H](C)[C@@](O)(O3)C(=O)C(=O)N3CCCCC3C(=O)O2)CC[C@H]1OC(=O)NCCc1ccccc1` (stereo partly drawn) [Compound 117], the IC50 at mTORC1 was less than 0.316 nM; on mTORC2 it was less than 1000 nM.
In the case of “(1R,9S,12SR,15R,16E,18R,19R,21R,23S,24E,26E,28E,32SR,35R)-1,18-dihydroxy-30-(3-hydroxypropoxy)-19-methoxy-12-[(1R)-2-[(1S,3R,4R)-3-methoxy-4-(3-phenylpropoxy)cyclohexyl]-1-methyl-ethyl]-15,17,21,23,29,35-hexamethyl-11,36-dioxa-4-azatricyclo[30.3.1.0^4,9]hexatriaconta-16,24,26,28-tetraene-2,3,10,14,20-pentone [Compound 67]”, the “pIC50 mTORC1” value on mTORC1 is on record as “B (8.5 to 9.5 as B)”. In addition, the “pIC50 mTORC2” value on mTORC2 was “A (PIC50 for mTORC2 of <5 as A)”.
